According to patent publication US20190015518A1, “DRUG DELIVERY COMPOSITIONS AND METHODS” (priority 2016, published 2019):
“And” between values parts separate entries of the source, which are not always exact repeats. Identical values can stand only once.

Key:
[1] = system: MDA-1986 (human head and neck squamous cell carcinoma) cells; test: Anti-proliferative activity (Resazurin Blue, 72 hours); format: cell-based
Procedure: (§3) MDA-1986 (human head and neck squamous cell carcinoma), 4T1.2-neu (murine breast cancer cells), and A2058 (human melanoma) cells were maintained in Dulbecco's Modified Eagle Medium (DMEM, Corning, Manassas, Va.) with 4.5 g/L glucose, 4.5 g/L L-glutamine, and 10% fetal bovine serum in a humidified incubator at 37° C. and 5% CO2. Cells were seeded into 96-well plates (3,000 cells/well in 90 μL media) and allowed to attach overnight. […] Resazurin Blue (Acros Organics, Geel, Belgium) in PBS was added to each well (5-μM final concentration; 10-μL addition) and incubated at 37° C. for 4 hours. Fluorescence (λex 550 nm, λem 605 nm) was quantified with a SpectraMax Gemini XS plate-reader (Molecular Devices, Sunnyvale, Calif.). The relative growth of cells incubated with each compound concentration was normalized to vehicle-treated controls (100% proliferation). Data from at least three separate experiments performed in duplicate was analyzed using non-linear regression (GraphPad Prism 5.0) to generate IC50 values.

[2] = system: MDA-1986 head and neck tumors; test: Anticancer efficacy, orthotopic xenograft model of human HNSCC; format: in vivo, mouse; parameters: key to tumor response, Modified RECIST: PR=Partial Response (>30% reduction); PD=Progressive Disease (>30% tumor growth); SD=Stable Disease (neither PR nor PD criteria met)
Procedure: The MDA-1986 cells were prepared in PBS at a concentration of 2×10^7 cells/mL. Female NU/NU mice were anesthetized under 2% isoflurane in O2, and 50 μL of cell solution was injected into the oral sub-mucosa of the mice using a 27-ga needle. All procedures in the animal study were approved by the Institutional Animal Care and Use Committee of the University of Kansas. Tumor growth was monitored twice weekly by measurement with a digital caliper, and the tumor volume was calculated as 0.52×(width)^2×(length). […] The drugs were given weekly for 3 consecutive weeks.

[3] = Viscosity reduction by excipients (rheometer); format: physicochemical; conditions: 37° C.
Procedure: The viscosity of 29 kDa HA (60 mg/mL), 33HA-Lys (33 kDa HA with linker, 8 mg/mL on HA basis), and 33HA-Lys-Pt (41.7 mg/mL on HA basis) with increasing concentration of mannitol (0, 0.1, 0.5 and 1 M) were measured using a rheometer at 37° C.
(§1) The solutions were incubated in the dark for 20 hours using a CLAY ADAMS® Brand Nutator. After 20 hours, the pH of the solutions were adjusted to pH 6.0 using 1N NaOH. A Brookfield DVIII Ultra Programmable Rheometer was used to measure the viscosity of three 500-μL samples of each solution. Measurements were taken for each at three different RPMs, where the torque ranged from 10-100%. Values for viscosity were not recorded until at least 30 seconds after the motor was started, after the torque readings were stabilized.
as §1, with “to pH 5.0 or 6.0 using” for “to pH 6.0 using”

[4] = Viscosity reduction by excipients (rheometer); format: physicochemical; conditions: sucrose 0.1, 0.5 and 1 M, 37° C.
[5] = HPLC of small molecular platinum species after storage; format: physicochemical; conditions: solution stored at 4° C. for 4 days
Procedure: Small molecular platinum species including cisplatin, Pt-monoaqua, and Pt-diaqua were quantified by HPLC. The mobile phase was sodium phosphate solution (10-mM, pH 3.0) at a flow rate of 0.25 mL/min on an Alltech® 250 mm×4.6 mm M/M RP8/cation column thermostated at 25° C. […] The filtrate was immediately injected into the HPLC.

[6] = system: white blood cell DNA; test: Pt-DNA adduct quantitation in white blood cell DNA; format: in vivo, rat; conditions: for Pt-DNA adduct Tmax / Pt-DNA adduct AUC: cisplatin i.v. 10 mg/kg, HA-Lys-Pt s.c. 10 mg/kg cisplatin basis; for Pt-DNA adduct AUC: 10 mg/kg
Procedure: (§2) Whole blood was centrifuged (1500×g, 5 min., 4° C., no brake). Top layer (plasma) and middle layer (white blood cells) were transferred to new tubes. Plasma was frozen (−20° C.) until analysis. […] The white blood cell pellet was washed twice with cold PBS and re-suspended in 9 mL of white blood cell buffer (10-mM Tris, pH 7.4, 2.3% NaCl, 2-mM EDTA), and 900 μL of 1.1-M NH4HCO3, 900 μL of 10% SDS, and 75 μL of 2% Proteinase K were added and incubated at 42° C. overnight. Then, 3.3 mL of 5-M NaCl was added, samples shaken vigorously, and centrifuged twice (3200×g, 5 min, 4° C.), each time discarding the pellet. DNA was pelleted with 20 mL of ice-cold 100% ethanol and centrifuged (3200×g, 5 min, 4° C.); the DNA pellet was washed twice with 75% ethanol, re-suspended in water, and quantitated. DNA was digested in 1% HNO3 (800 μL total volume) overnight at 70° C. DNA samples were diluted 1:10 in 1% HNO3 and plasma samples were diluted 1:10,000 in 1% HNO3. Diluted samples were analyzed for Pt content using ICP-MS with a calibration curve from 1-1000 ppt.

[7] = Plasma Pt quantitation; conditions: cisplatin i.v. 10 mg/kg; HA-Lys-Pt s.c. 10 mg/kg cisplatin basis
Procedure: as §2

[8] = Toxicity of HA-Lys-Pt in healthy Balb/c mice; format: in vivo, mouse
Procedure: The toxicity of HA-Lys-Pt was evaluated in healthy Balb/c mice. […] Another group of Balb/c mice was injected subcutaneously with 8.86 (N=2), 13.3 (N=2), 17.7 (N=2), 20 (N=2), 30 (N=2), and 40 mg/kg (N=1) of the 33HA-Lys-Pt. Their body weights and symptoms of toxicities were monitored twice per week for up to 2 months.

[9] = Transmission electron microscopy, particle diameter; format: physicochemical; conditions: TEM
Excerpt: FIGS. 4A and 4B show the transmission electron microscopy images of HA-Lys-Pt (75 kD HA) before and after salt treatment for 2 weeks. The average diameters of HA-Lys-Pt particles ranged from 25 to 50 nm. […] Intense darkness results from the high electron density of Pt rich area. […] Reduced clustering of the salt treated nanoparticles may be due to reduced hydrophobicity due to release of Pt and availability of charged chelator groups.

[10] = human, in vivo; cited from earlier work
[11] = system: A2058 (human melanoma) cells; test: Anti-proliferative activity (Resazurin Blue, 72 hours); format: cell-based; conditions: mean ± S.E.M., cisplatin basis
Procedure: as §3

[12] = system: 4T1.2-neu (murine breast cancer cells); test: as above; format: cell-based; conditions: mean ± S.E.M., cisplatin basis
Procedure: as §3

[13] = system: spontaneous canine cancers; conditions: dogs; cited from earlier work
[14] = system: head and neck squamous cell carcinoma cells, MDA-1986; test: Cytotoxicity of HA-GluH-Pt (Resazurin blue); format: cell-based, human; conditions: 72 hours
Procedure: Cell growth inhibition was determined in 96-well plates using head and neck squamous cell carcinoma cells, MDA-1986. […] Plates were seeded with 3,000 cells/well in 90 uL of media (6 replicates/sample). Ten microliters of HA-GluH-Pt conjugate solutions were applied after 24 hours. Resazurin blue in 10 uL of PBS was applied to each well (final concentration 5 uM) after another 72 hours.

[15] = system: MDA-1986 cells that overexpress CD44; test: CD44 specificity and cellular uptake of HA-GluH-Pt; format: cell-based, human; conditions: 30-μg/mL, 6 h
Procedure: CD44 specificity and cellular internalization mechanism of HA-GluH-Pt was investigated using MDA-1986 cells that overexpress CD44. Chlorpromazine was used as an endocytosis inhibitor. Cells were pretreated with 25-μM chlorpromazine or 10-μg/mL anti-CD44 1 h before the addition of 30-μg/mL HA-GluH-Pt (on platinum basis) and subsequent incubation for 6 h. Cells were trypsinized, lysed by sonication and diluted 20 fold prior to ICP-MS analysis.

[16] = Toxicity of HA-GluH-Pt in mice; format: in vivo, mouse; conditions: single s.c. 20, 40, 67 and 100 mg/kg, 2 months
Procedure: The toxicity of HA-GluH-Pt was evaluated in blab/C mice. Four blab/C mice were injected subcutaneously with 20, 40, 67 and 100 mg/kg HA-GluH-Pt. The body weights of the animals were checked weekly for 2 months.

## HA-cis-[Pt(NH3)2(N^α-Acetyl-L-Lysine)] [33HA-Lys-Pt]
[1]; mean ± S.E.M., cisplatin basis, listed as HA-Lys-Pt 33 kDa
  IC50: 20.7 ± 2.9 µM
[1]; text b180, listed as HA-Lys-Pt 33 kDa
  IC50: ~40 µM
[2]; animal #1
  tumor response, Modified RECIST: PR (PR=Partial Response (>30% reduction))
[2]; animal #2
  tumor response, Modified RECIST: PR (PR=Partial Response (>30% reduction))
[2]; animal #3
  tumor response, Modified RECIST: SD
[2]; animal #4
  tumor response, Modified RECIST: PR (PR=Partial Response (>30% reduction))
[2]; animal #5
  tumor response, Modified RECIST: PR (PR=Partial Response (>30% reduction))
[2]; animal #6
  tumor response, Modified RECIST: SD
[2]; animal #7
  tumor response, Modified RECIST: PR (PR=Partial Response (>30% reduction))
[2]; animal #8
  tumor response, Modified RECIST: PR (PR=Partial Response (>30% reduction))
[2]; three weekly injections
  rate of partial response (PR): 75%
[3]; mannitol 0.1, 0.5 and 1 M
  effect on viscosity: reduced the viscosity
[3]; trehalose 0.1, 0.5 and 1 M
  effect on viscosity: reduced the viscosity
[4]
  effect on viscosity: reduced the viscosity

## HA-cis-[Pt(NH3)2(N^α-Acetyl-L-Lysine)] [HA-Lys-Pt]
[5]
  Pt-monoaqua and Pt-diaqua detection: Neither Pt-monoaqua nor Pt-diaqua was detected
[6]
  Pt-DNA adduct Tmax: 48 h
  Pt-DNA adduct AUC: 5247 pg Pt×h/μg DNA
[7]
  plasma Pt Cmax: 4.1±2.4 μg Pt/mL plasma
  plasma Pt Tmax: 24 h
[8]; 20 or 30 mg/kg (on cisplatin basis), weight loss began one-week post treatment
  body weight recovery: returned to pre-dose weight within another two weeks
[8]; highest dose (40 mg/kg), compared with 20 or 30 mg/kg
  body weight recovery: one additional week
[8]; single s.c. injection, any dose level
  acute toxic reactions including lethargy, paralysis, and respiratory depression: not observed
[2]; single dose of 20 mg/kg
  weight loss: less than 5%
[2]; three weekly doses of 20 mg/kg, after the last injection
  weight loss: more than 20%
[9]; after salt treatment for 2 weeks
  diameters of nanoparticles: 25-50 nm
[9]; freshly made
  diameters of nanoparticles: 25-50 nm

## N.N.O=C([O-])C1(C(=O)[O-])CCC1.[Pt+2] [carboplatin]
[10]
  patients in whom thrombocytopenia is dose limiting: 25%

## N.N.[Cl][Pt][Cl] [Cisplatin, cisplatin, reference compound]
[1]; mean ± S.E.M., cisplatin basis
  IC50: 8.2 ± 0.6 µM
[1]; mean ± S.E.M., cisplatin basis, listed as cisplatin
  IC50: ~8 µM
[11]
  IC50: 6.8 ± 2.7 µM
[11]; listed as cisplatin
  IC50: ~8 µM
[12]
  IC50: 9.4 ± 2.5 µM
[12]; listed as cisplatin
  IC50: ~8 µM
[6]
  Pt-DNA adduct Tmax: 1 h
  Pt-DNA adduct AUC: 1466 pg Pt×h/μg DNA and 1255 pg Pt×h/μg DNA
[6]; i.v. 10 mg/kg, 15 minutes to 96 hours
  levels of adduct formation over the time course: 11-16 pg Pt/μg DNA
[2]; animal #1
  tumor response, Modified RECIST: PR (PR=Partial Response (>30% reduction))
[2]; animal #2
  tumor response, Modified RECIST: PD (PD=Progressive Disease (>30% tumor growth))
[2]; animal #3
  tumor response, Modified RECIST: SD
[2]; animal #4
  tumor response, Modified RECIST: PR (PR=Partial Response (>30% reduction))
[2]; animal #5
  tumor response, Modified RECIST: PD (PD=Progressive Disease (>30% tumor growth))
[2]; animal #6
  tumor response, Modified RECIST: PR (PR=Partial Response (>30% reduction))
[2]; animal #7
  tumor response, Modified RECIST: PD (PD=Progressive Disease (>30% tumor growth))
[2]; animal #8
  tumor response, Modified RECIST: PD (PD=Progressive Disease (>30% tumor growth))
[2]; three weekly injections
  rate of partial response (PR): 37.5%
  rate of progressive disease (PD): 50%
[13]
  cure in heterogeneous oral squamous cell carcinomas: 7%

## HA6.4-cis-[Pt(NH3)2(Nα-Acetyl-L-lysine)] [HA6.4-lys-Pt]
[1]; highest dose tested (300 μM)
  cell growth inhibition: < 50%
[1]; mean ± S.E.M., cisplatin basis
  IC50: > 500 µM

## HA-cis-[Pt(NH3)2(Nα-AcetylGluH)] [HA-GluH-Pt]
[14]
  IC50: 623 µM
[15]
  cellular uptake in anti-CD44 antibody and chlorpromazine treated cells: did not differ significantly from the non-treated control
[16]
  weight loss: Less than 5%
